Reference: US10730826B2, “Ketone inhibitors of lysine gingipain” (CORTEXYME, INC., priority 2016, dated 2020)

Columns and labels:
lysine gingipain (Kgp) [1] = molecular target: lysine gingipain (Kgp) (Porphyromonas gingivalis (Bacteroides gingivalis), UniProt P72194); test: biochemical; type: biochemical
Description: (§1) The specific assay conditions were as follows. Buffer: pH=7.5, 100 mM Tris-HCl, 75 mM NaCl, 2.5 mM CaCl2), 10 mM cysteine, 1% DMSO after all additions. Protein: 0.1 nM Kgp, isolated from culture of Porphyromonas gingivalis, as described by Pike et al. (J. Biol. Chem. 1994, 269(1), 406), and Potempa and Nguyen (Current Protocols in Protein Science. 2007, 21.20.1-21.20.27). Fluorogenic substrate: 10 μM Z-His-Glu-Lys-MCA. Time=90 minutes. Temperature=37° C.
(§2) Further assays to measure the inhibitory activity of compounds of the present invention against Kgp and cathepsins B, H, K, L, and S were conducted as described in Example 66. The capacities of the compounds to inhibit the activity of cathepsins F, V, and Z were also measured.

[2] = Pharmacokinetics in male CD-1 mice dosed p.o.; type: in vivo; details: p.o. 10 mg/kg, compared to reference compound 73
lysine gingipain (Kgp) [3] = test: biochemical; type: biochemical, Porphyromonas gingivalis; details: as compared to reference compound 73
Description: as §1, §2

| Structure (SMILES) | IC50 (lysine gingipain (Kgp) [1]; IC50 (nM) Kgp, Table 4) [nM] | also measured |
| --- | --- | --- |
| NCCCCC(NC(=O)c1cccnc1Br)C(=O)COc1c(F)cccc1F (centres unmarked) [Compound 34a] | 0.13 |  |
| NCCCCC(NC(=O)c1ccc(F)cc1)C(=O)COc1c(F)cccc1F (centres unmarked) [Compound 35a] | 0.1 |  |
| NCCCCC(NC(=O)c1ccccc1)C(=O)C(F)F (centres unmarked) [Compound 37a] | > 100 |  |
| NCCCCC(NC(=O)C1CCCC1)C(=O)Cn1cnccc1=O (centres unmarked) [Compound 39a] | > 100 |  |
| NCCCCC(NC(=O)C1CCCC1)C(=O)Cn1ccc(=O)nc1 (centres unmarked) [Compound 40a] | 30.3 |  |
| NCCCCC(NC(=O)C1CCCC1)C(=O)Cn1cncc(F)c1=O (centres unmarked) [Compound 41a] | > 100 |  |
| NCCCCC(NC(=O)c1cccnc1)C(=O)COc1c(F)ccc(F)c1F (centres unmarked) [Compound 42a] | 0.06 |  |
| NCCCCC(NC(=O)c1cccnc1)C(=O)COc1c(F)cccc1F (centres unmarked) [Compound 43a] | 0.09 |  |
| CN(C)c1ccc(/N=N/c2ccc(C(=O)NCc3cc(F)c(OCC(=O)C(CCCCN)NC(=O)c4cccc(N=[N+]=[N-])c4)c(F)c3)cc2)cc1 (centres unmarked) [Compound 44a] | 3.04 | IC50 (lysine gingipain (Kgp) [1]; Kgp IC50 (nM), Table 5, probe compounds): 3 nM |
| COC(C)(C)C(=O)N[C@@H](CCCCN)C(=O)COc1c(F)cccc1F [Compound 48, (S)—N-(7-amino-1-(2,6-difluorophenoxy)-2-oxoheptan-3-yl)-2-methoxy-2-methylpropanamide] |  | oral availability [2]: improved oral availability; plasma concentrations [2]: increased plasma concentrations |
| COC(C)(C)C(=O)NC(CCCCN)C(=O)COc1c(F)cccc1F (centres unmarked) [Compound 48a] | 0.07 |  |
| NCCCC[C@H](NC(=O)C1CCCC1)C(=O)COc1ccon1 [Compound 49, (S)—N-(7-amino-1-(isoxazol-3-yloxy)-2-oxoheptan-3-yl)cyclopentanecarboxamide] |  | concentrations in the brain and cerebrospinal fluid (CSF) [2]: reduced concentrations in the brain and/or cerebrospinal fluid |
| NCCCCC(NC(=O)C1CCCC1)C(=O)COc1ccon1 (centres unmarked) [Compound 49a] | 0.23 |  |
| NCCCC[C@H](NC(=O)c1ccccn1)C(=O)COc1c(F)ccc(F)c1F [Compound 50, (S)—N-(7-amino-2-oxo-1-(2,3,6-trifluorophenoxy)heptan-3-yl)picolinamide] |  | selectivity for Kgp over endogenous cathepsins (lysine gingipain (Kgp) [3]): increased selectivity |
| NCCCCC(NC(=O)c1ccncc1)C(=O)COc1c(F)ccc(F)c1F (centres unmarked) [Compound 52a] | 0.06 |  |
| NCCCC[C@H](NC(=O)c1ccc(F)nc1)C(=O)COc1ccon1 [Compound 55, (S)—N-(7-amino-1-(isoxazol-3-yloxy)-2-oxoheptan-3-yl)-6-fluoronicotinamide] |  | selectivity for Kgp over endogenous cathepsins (lysine gingipain (Kgp) [3]): far more selective |
| NCCCCC(NC(=O)c1cccnc1F)C(=O)COc1ccon1 (centres unmarked) [Compound 56a] | 0.1 |  |
| COC(C)(C)C(=O)NC(CCCCN)C(=O)COc1ccon1 (centres unmarked) [Compound 57a] | 0.09 |  |
| CS(C)(=O)=CC(=O)C(CCCCN)NC(=O)C1CCCC1 (centres unmarked) [Compound 58a] | 4.66 |  |
| C[N+](C)(C)c1ccc(C(=O)NC(CCCCN)C(=O)COc2ccon2)cn1 (centres unmarked) [Compound 61a] | 0.43 |  |
| CN(C)c1ccc(C(=O)NC(CCCCN)C(=O)COc2ccon2)cn1 (centres unmarked) [Compound 62a] | 0.14 |  |
| COC(C)(C)C(=O)NC(CCCCN)C(=O)COc1cc(C)nc(C)c1 (centres unmarked) [Compound 63a] | 0.09 |  |
| COC(C)(C)C(=O)NC(CCCCN)C(=O)COc1cccnc1 (centres unmarked) [Compound 64a] | 0.4 |  |
| COC(C)(C)C(=O)NC(CCCCN)C(=O)COc1cnc(C)nc1 (centres unmarked) [Compound 65a] | 0.16 |  |
